Test systems include HCT-15 colon; SK-OV-3 ovarian; MCF7 breast; SF-295 CNS; LOX IMVI melanoma; DU-145 prostate; NCI/ADR-RES ovarian; SW-620 colon; CCRF-CEM leukemia; SK-MEL-28 melanoma.
Holding throughout (experiment): NCI-60 cell line screen, 48 h

Where “and” joins values, the source holds several entries; their conditions need not be identical. Equal entries are not always repeated.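 Exposure lasted 48 hours, with cells grown in 96-well plates and compounds tested at five concentrations. GI50 is the concentration that inhibits growth by half. TGI: total growth inhibition.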 Bounds are passed on as bounds.

As for `O=C1NC(=NC(CO)Cc2ccccc2)S/C1=C\c1ccc2ncccc2c1` (stereo unspecified), the GI50 with HCT-15 colon was 10.5 µM and 4.19 µM; with SK-OV-3 ovarian, 14.1 µM and 3.74 µM; in the assay with MCF7 breast it was 7.25 µM and 2.98 µM; in the assay on SF-295 CNS, > 25 µM and 5.5 µM; with LOX IMVI melanoma, 16.5 µM and 3.85 µM; in the assay with DU-145 prostate, 18.8 µM and 2.62 µM. Also, the GI50 in the assay on NCI/ADR-RES ovarian was > 25 µM; in the assay on SW-620 colon, 9.04 µM and 0.927 µM; in the assay with CCRF-CEM leukemia, 10.6 µM and 4.89 µM; in the assay on SK-MEL-28 melanoma, > 23.7 µM and 7.24 µM. Besides, the TGI in the assay with HCT-15 colon is > 25 µM; with SK-OV-3 ovarian it was > 25 µM and 21.2 µM; with MCF7 breast, > 25 µM; with SF-295 CNS, > 25 µM; in the assay with LOX IMVI melanoma, > 25 µM; with DU-145 prostate it was > 25 µM. Moreover, the TGI with NCI/ADR-RES ovarian is > 25 µM; with SW-620 colon, > 25 µM; in the assay on CCRF-CEM leukemia it was > 25 µM; in the assay on SK-MEL-28 melanoma, > 25 µM and 24.4 µM.
In the case of `CN(C)c1cc(NN=C(c2ccc(O)cc2)c2ccc(O)cc2)c([N+](=O)[O-])cc1[N+](=O)[O-]`, the GI50 is 4.02 µM with HCT-15 colon; 14.4 µM with SK-OV-3 ovarian; 3.42 µM in the assay with MCF7 breast; 1.86 µM with SF-295 CNS; 3.04 µM in the assay with LOX IMVI melanoma; 10.2 µM with DU-145 prostate. Also, the GI50 is 5.3 µM in the assay with NCI/ADR-RES ovarian, 11.4 µM in the assay with SW-620 colon, 2.58 µM with CCRF-CEM leukemia and 2.85 µM in the assay with SK-MEL-28 melanoma. Besides, the TGI with HCT-15 colon was found to be 17.7 µM; in the assay with SK-OV-3 ovarian, 36.6 µM; in the assay on MCF7 breast, 16 µM; in the assay with SF-295 CNS, 5.22 µM; in the assay on LOX IMVI melanoma, 15.2 µM; with DU-145 prostate, 23.6 µM. Moreover, the TGI was 27 µM in the assay with NCI/ADR-RES ovarian, 24.2 µM with SW-620 colon, 17.9 µM with CCRF-CEM leukemia and 10.5 µM with SK-MEL-28 melanoma.
With `O=C(CCCSc1nc(-c2ccccc2)cc(-c2ccccc2)n1)NO`, the GI50 with HCT-15 colon is 0.408 µM; with SK-OV-3 ovarian, 1.94 µM; with MCF7 breast it was 2.1 µM; in the assay with SF-295 CNS, 2.17 µM; in the assay on LOX IMVI melanoma it was 2.26 µM; with DU-145 prostate it was 1.83 µM. Further, the GI50 is 0.305 µM in the assay with NCI/ADR-RES ovarian, 0.777 µM in the assay with SW-620 colon, 0.368 µM in the assay with CCRF-CEM leukemia and 1.95 µM with SK-MEL-28 melanoma. Moreover, the TGI with HCT-15 colon was 11.8 µM; with SK-OV-3 ovarian, 5.57 µM; with MCF7 breast, 14.3 µM; in the assay with SF-295 CNS, 6.98 µM; in the assay on LOX IMVI melanoma it was 5.47 µM; in the assay with DU-145 prostate, 11.4 µM. Further, the TGI with NCI/ADR-RES ovarian amounted to 10.5 µM; in the assay with SW-620 colon it was 12.7 µM; in the assay on CCRF-CEM leukemia, 10.6 µM; in the assay with SK-MEL-28 melanoma, 7.2 µM.
On to `CC1=C2C(=C[C@@](C)(CO)[C@@H]2O)C(=O)[C@](C)(O)C12CC2`, for which the TGI in the assay with HCT-15 colon was 0.0344 µM; in the assay with SK-OV-3 ovarian, 0.0302 µM and 0.0394 µM; in the assay with MCF7 breast, 0.0687 µM; in the assay on LOX IMVI melanoma it was 0.0376 µM; in the assay with DU-145 prostate, 0.0597 µM; in the assay with NCI/ADR-RES ovarian, 0.0243 µM. Moreover, the TGI is 0.074 µM and 0.129 µM with SW-620 colon; 0.0339 µM and 0.0146 µM in the assay with SK-MEL-28 melanoma. Moreover, in the assay on CCRF-CEM leukemia, the GI50 is 0.342 µM.
Regarding `CC1(C)OC1COc1c2occc2cc2ccc(=O)oc12` (stereo unspecified), the TGI in the assay on HCT-15 colon, in the assay on MCF7 breast, in the assay on SF-295 CNS, with LOX IMVI melanoma, in the assay on DU-145 prostate and with NCI/ADR-RES ovarian was > 100 µM throughout. Besides, the TGI in the assay on SW-620 colon, with CCRF-CEM leukemia and in the assay on SK-MEL-28 melanoma was > 100 µM throughout.
For the compound `O=[N+]([O-])c1ccc(Cl)cc1N/N=C/c1ccnc2ccccc12`, the TGI in the assay with HCT-15 colon, in the assay on SK-OV-3 ovarian, with MCF7 breast, in the assay on SF-295 CNS, with DU-145 prostate and in the assay with NCI/ADR-RES ovarian was > 100 µM in each case. For the same compound, the TGI in the assay on SW-620 colon, with CCRF-CEM leukemia and in the assay on SK-MEL-28 melanoma was > 100 µM in each case.
Take `COC[C@H]1Cn2cc(-c3nc(Nc4ccnn4C)ncc3C)nc2C(=O)N1Cc1ccc(F)c(F)c1`: the GI50 is 28.3 µM with HCT-15 colon; 35.9 µM with SK-OV-3 ovarian; 9.79 µM in the assay on MCF7 breast; > 100 µM in the assay on SF-295 CNS; 0.119 µM with LOX IMVI melanoma; 22.7 µM in the assay on DU-145 prostate. For the same compound, the GI50 in the assay with NCI/ADR-RES ovarian is > 100 µM; in the assay with SW-620 colon it was 0.156 µM; with CCRF-CEM leukemia, 29.3 µM. Further, the TGI in the assay on HCT-15 colon, in the assay with SK-OV-3 ovarian, with MCF7 breast, in the assay with SF-295 CNS, in the assay with LOX IMVI melanoma and in the assay with DU-145 prostate was > 100 µM each time. For the same compound, the TGI in the assay with NCI/ADR-RES ovarian, in the assay on SW-620 colon and in the assay with CCRF-CEM leukemia was > 100 µM each time.
Take `CC1SC(c2ccc(F)cc2)N(NC(=O)C(O)c2ccccc2)C1=O` (stereo unspecified): the GI50 with HCT-15 colon, in the assay on MCF7 breast, in the assay with SF-295 CNS, in the assay on LOX IMVI melanoma, with DU-145 prostate and in the assay on NCI/ADR-RES ovarian was > 100 µM in each case. Besides, the GI50 in the assay with SW-620 colon, in the assay with CCRF-CEM leukemia and with SK-MEL-28 melanoma was > 100 µM in each case. Besides, the TGI with HCT-15 colon, in the assay with MCF7 breast, in the assay with SF-295 CNS, in the assay with LOX IMVI melanoma, in the assay with DU-145 prostate and with NCI/ADR-RES ovarian was > 100 µM each time. Besides, the TGI in the assay with SW-620 colon, in the assay on CCRF-CEM leukemia and in the assay on SK-MEL-28 melanoma was > 100 µM each time.
As to `CCN1C(=O)N(c2ccccc2)C2NC(=S)N(/N=C/C=C/c3ccccc3OC)C21` (stereo unspecified), the GI50 is 0.102 µM in the assay on HCT-15 colon; 0.0942 µM with MCF7 breast; 0.0749 µM in the assay with SF-295 CNS; 0.109 µM in the assay with LOX IMVI melanoma; 0.115 µM in the assay on DU-145 prostate; 0.0782 µM in the assay on NCI/ADR-RES ovarian. The GI50 is 0.125 µM in the assay on SW-620 colon, 0.111 µM with CCRF-CEM leukemia and 4.73 µM in the assay with SK-MEL-28 melanoma. For the same compound, the TGI with HCT-15 colon is > 100 µM; in the assay on MCF7 breast, > 64.3 µM; with SF-295 CNS it was 25.7 µM; in the assay on LOX IMVI melanoma, > 69.5 µM; with DU-145 prostate, > 34.4 µM; in the assay with NCI/ADR-RES ovarian it was > 72.4 µM. Also, the values for the TGI with SW-620 colon, in the assay on CCRF-CEM leukemia and in the assay on SK-MEL-28 melanoma were > 100 µM, > 38.5 µM and > 100 µM, respectively.

(Values after PubChem BioAssay (NCI).)
